The text below walks through data of patent publication US6509365B1, “2-phenylbenzimidazoles and 2-phenylindoles, and production and use thereof” (BASF Aktiengesellschaft, priority 1998, dated 2003).

What is called IC50 is the concentration needed to halve the response being measured. Read a low IC50 as inhibition by little substance.

The test system of one data set is circulatory shock. Particulars: S. Cuzzocrea et al., Br. J. Pharmacol. 1997; cited from earlier work.
Data set [1] deals with T1, PARP enzyme present in the cells (human cell line C4I) (Homo sapiens, UniProt P09874).
T1 construct: endogenous in cells; host or cells: human cell line C4I
T1 sequence (P09874 whole entry): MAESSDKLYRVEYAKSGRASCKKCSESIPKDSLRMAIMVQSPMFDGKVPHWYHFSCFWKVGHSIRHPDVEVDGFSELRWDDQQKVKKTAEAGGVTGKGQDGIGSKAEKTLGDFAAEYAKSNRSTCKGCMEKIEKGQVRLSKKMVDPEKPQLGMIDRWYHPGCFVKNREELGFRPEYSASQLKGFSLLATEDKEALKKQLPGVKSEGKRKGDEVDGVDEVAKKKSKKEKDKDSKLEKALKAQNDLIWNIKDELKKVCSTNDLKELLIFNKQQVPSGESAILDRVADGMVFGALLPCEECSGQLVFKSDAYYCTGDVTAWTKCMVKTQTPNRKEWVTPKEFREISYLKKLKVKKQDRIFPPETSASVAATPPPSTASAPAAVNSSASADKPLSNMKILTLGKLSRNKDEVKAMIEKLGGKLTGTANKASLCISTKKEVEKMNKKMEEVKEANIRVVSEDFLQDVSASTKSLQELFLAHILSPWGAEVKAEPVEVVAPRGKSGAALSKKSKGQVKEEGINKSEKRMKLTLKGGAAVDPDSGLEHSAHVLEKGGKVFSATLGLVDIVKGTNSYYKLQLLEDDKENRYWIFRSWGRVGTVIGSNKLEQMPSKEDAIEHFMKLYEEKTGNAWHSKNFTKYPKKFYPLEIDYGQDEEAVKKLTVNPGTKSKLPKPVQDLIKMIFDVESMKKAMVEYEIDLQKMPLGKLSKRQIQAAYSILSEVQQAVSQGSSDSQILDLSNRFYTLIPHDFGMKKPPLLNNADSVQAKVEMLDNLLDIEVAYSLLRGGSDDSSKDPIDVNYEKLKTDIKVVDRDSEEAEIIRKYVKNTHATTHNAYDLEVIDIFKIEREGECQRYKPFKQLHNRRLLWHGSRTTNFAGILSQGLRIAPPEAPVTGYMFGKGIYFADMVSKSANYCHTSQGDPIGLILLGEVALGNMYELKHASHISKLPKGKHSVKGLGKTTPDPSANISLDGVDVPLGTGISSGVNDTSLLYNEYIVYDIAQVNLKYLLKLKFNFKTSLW
Nature of the data set: Test of PARP inhibitors in a cellular assay (H2O2-induced PAR formation, immunofluorescence). It is filed as cell-based. As to conditions: 1 mM hydrogen peroxide, FITC signal standardized to DAPI. Here is the method: To test the action of PARP inhibitors, eukaryotic cell lines are treated with chemicals such that the DNA of the cell line is damaged and as a result the PARP enzyme present in the cells is activated. Due to the activation of the enzyme, chains of poly-ADP-ribose (PAR) are formed on proteins. These chains are bound by a specific antibody. This is in turn bound by a second antibody which is provided with a fluorescent label. The fluorescence is measured using a fluorescence scanner and behaves proportionately to the activity of the enzyme PARP. PARP inhibitors can be recognized by a weakening of the fluorescence signal. In order to prevent adulterations of the results by different cell counts, the DNA of the cells is labeled with a further dye and its fluorescence is likewise determined in the fluorescence scanner.
400,000 cells of the human cell line C4I are incubated at 37° C., 5% CO2 with 10% fetal bovine serum in RPMI medium in cell culture plates having 24 cavities until a thick cell lawn is obtained. The cells are washed with DMEM and the PARP inhibitors to be tested are added in various concentrations in DMEM. After incubation for 20 min at 37° C., a concentration of 1 mM is established using hydrogen peroxide and the mixture is incubated at 37° C. for a further 10 min. For the control, cells in some cavities are not treated with hydrogen peroxide (no PARP activation) or receive no inhibitor (maximal PARP activation). The cells are washed once with PBS and fixed at −20° C. for 10 min by addition of methanol/acetone mixture which is precooled to −20° C. (7 parts methanol, 3 parts acetone). The cells are then dried, rehydrated at room temperature for 10 min by addition of PBS, and nonspecific binding sites are blocked for 30 min at room temperature in PBS with 0.05% Tween 20 and 5% dried milk powder. […] The FITC and DAPI fluorescence is measured at several sites in the cavities with the aid of a fluorescence scanner. […] The IC50 values are calculated by semilogarithmic plotting of the standardized values of the various inhibitor concentrations.

The nature of data set [2]: Determination of the water solubility. As to conditions: pH 5 to 6 adjusted with sodium acetate solution, DMSO ≦1% if not a water-soluble salt. It counts as physicochemical. Here is the method:
A compound to be measured is dissolved directly in a specified volume of water and the resulting solution is adjusted to pH 5 to 6 using a sodium acetate solution so that the concentration of the active compound to be tested is achieved. If the measured substance is not present as a water-soluble salt, this was dissolved in as little dimethyl sulfoxide as possible and then diluted with water (final concentration of dimethyl sulfoxide ≦1%), after which the pH was additionally adjusted here too.

For the compound `NC(=O)c1cccc(N)c1` [3-aminobenzamide], the “protective effects in a model for circulatory shock” value with circulatory shock is listed as “protective effects”.

Turning to `CCN(CC)CCN(C)c1ccc(-c2nc3c(C(N)=O)cccc3[nH]2)cc1` [Example 1], in data set [1], the IC50 turned out to be 115 nM.

With `CN(C)CCN(C)c1ccc(-c2nc3c(C(N)=O)cccc3[nH]2)cc1` [Example 2], the IC50 in data set [1] turned out to be 119 nM.

On to `CN(C)CCc1cc(-c2nc3c(C(N)=O)cccc3[nH]2)ccc1[N+](=O)[O-]` [Example 3], for which half-maximal inhibition in data set [1] (IC50) was put at 118 nM.

For the compound `COc1ccc(-c2nc3cccc(C(N)=O)c3[nH]2)cc1` [NU 1076], the solubility in data set [2] is given as less than 0.01%.
